Paper PMC11435890, “Enzymatic Hydrolysis of Resorcylic Acid Lactones by an Aeromicrobium sp” (Toxins, 2024)

Assays:
[1] = system: T1, RALH (resorcylic acid lactone hydrolase); assay: LC-HRMS quantification of hydrolyzed product (HRAD), Michaelis-Menten fit; assay type: biochemical, Aeromicrobium sp. LRDC-1; conditions: 50 mM Tris-HCl pH 8.0, 1% BSA, 37 °C, 25 nM RALH, 5 min
T1 construct: recombinant, codon-optimized, E. coli BL21(DE3); N-terminal His6-MBP tag removed with TEV protease; homologue alignment 303/316 residues (RALH vs ZenH); catalytic triad Ser117, Asp142, His292

[2] = system: T1, RALH (resorcylic acid lactone hydrolase); assay: LC-HRMS quantification of hydrolyzed product (HZEN), Michaelis-Menten fit; assay type: biochemical, Aeromicrobium sp. LRDC-1; conditions: 50 mM Tris-HCl pH 8.0, 1% BSA, 37 °C, 25 nM RALH, 20 min
ScHsp82 (ScHSP82) = biological target: T2, ScHsp82 (ScHSP82) (Saccharomyces cerevisiae, UniProt P02829); assay: malachite green ATPase inhibition assay; assay type: biochemical; conditions: 1 mM ATP, 4% DMSO, 100 mM Tris-HCl pH 7.5, 20 mM KCl, 6 mM MgCl2, 37 °C, 3 h
T2 construct: gene HSP82; Ni-NTA and gel permeation
T2 sequence (P02829 whole entry): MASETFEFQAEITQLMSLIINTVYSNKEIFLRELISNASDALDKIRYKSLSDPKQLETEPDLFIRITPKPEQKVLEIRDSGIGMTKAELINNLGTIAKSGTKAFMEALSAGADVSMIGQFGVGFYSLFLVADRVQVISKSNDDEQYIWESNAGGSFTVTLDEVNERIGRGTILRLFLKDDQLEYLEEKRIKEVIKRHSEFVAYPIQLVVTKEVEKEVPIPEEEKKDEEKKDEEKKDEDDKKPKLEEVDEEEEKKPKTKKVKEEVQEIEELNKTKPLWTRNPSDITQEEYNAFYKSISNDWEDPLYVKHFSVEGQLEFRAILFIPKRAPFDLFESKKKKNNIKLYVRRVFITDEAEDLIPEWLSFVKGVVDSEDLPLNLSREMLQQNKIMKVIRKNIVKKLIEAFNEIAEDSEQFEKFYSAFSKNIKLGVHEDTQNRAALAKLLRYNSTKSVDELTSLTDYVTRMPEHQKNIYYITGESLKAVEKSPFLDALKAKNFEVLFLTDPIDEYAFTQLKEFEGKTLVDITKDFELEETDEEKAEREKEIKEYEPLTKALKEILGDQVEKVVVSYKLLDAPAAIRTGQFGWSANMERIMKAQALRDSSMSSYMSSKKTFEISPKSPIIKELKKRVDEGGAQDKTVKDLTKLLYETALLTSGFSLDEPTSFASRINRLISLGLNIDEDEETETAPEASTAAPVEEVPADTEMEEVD

Compound	Km [1]	Km [2]	% decrease in ATPase activity at 50 μM (ScHsp82 (ScHSP82))
C[C@@H]1C[C@H]2O[C@@H]2/C=C\C=C\C(=O)Cc2c(Cl)c(O)cc(O)c2C(=O)O1 [III, RAD]	1200 µM		
C[C@H]1CCCC(=O)CCC/C=C/c2cc(O)cc(O)c2C(=O)O1 [I, ZEN]		24 µM	53%
